Laboratory results reported in patent publication US20230151025A1, “SUBSTITUTED THIAZOLOPYRIDINES, SALTS THEREOF AND THEIR USE AS HERBICIDALLY ACTIVE SUBSTANCES” (Bayer Aktiengesellschaft, priority 2020, published 2023).

Assays:
Assay type in all cases: in vivo
[1] = test system: Abutilon theophrasti (ABUTH); assay: Herbicidal pre-emergence action (A), 1280 g/ha; conditions: visual grading after ca. 3 weeks vs untreated controls, 100% = plants have died off, 0% = as control plants
Procedure, shortened: (§1)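 Pre-emergence greenhouse test: seeds sown in sandy loam pots, WP or EC formulations sprayed onto covering soil as aqueous suspension/emulsion with 0.5% additive at 600 l water/ha. Damage graded visually after ca. 3 weeks versus untreated controls, 0% = as control, 100% = plants dead.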

[2] = test system: Alopecurus myosuroides (ALOMY); assay: Herbicidal pre-emergence action (A), 1280 g/ha; conditions: visual grading after ca. 3 weeks vs untreated controls, 100% = plants have died off, 0% = as control plants
Procedure, shortened: as §1

[3] = test system: Amaranthus retroflexus (AMARE); assay: Herbicidal pre-emergence action (A), 1280 g/ha; conditions: visual grading after ca. 3 weeks vs untreated controls
Procedure, shortened: as §1

[4] = test system: Digitaria sanguinalis (DIGSA); assay: Herbicidal pre-emergence action (A), 1280 g/ha; conditions: visual grading after ca. 3 weeks vs untreated controls, 100% = plants have died off, 0% = as control plants
Procedure, shortened: as §1

[5] = test system: Echinochloa crus-galli (ECHCG); assay: Herbicidal pre-emergence action (A), 1280 g/ha; conditions: visual grading after ca. 3 weeks vs untreated controls, 100% = plants have died off, 0% = as control plants
Procedure, shortened: as §1

[6] = test system: Kochia scoparia (KCHSC; Bassia scoparia); assay: Herbicidal pre-emergence action (A), 1280 g/ha; conditions: visual grading after ca. 3 weeks vs untreated controls
Procedure, shortened: as §1

Lolium rigidum (LOLRI) [7] = assay: Herbicidal pre-emergence action (A), 1280 g/ha; conditions: visual grading after ca. 3 weeks vs untreated controls, 100% = plants have died off, 0% = as control plants
Procedure, shortened: as §1

[8] = test system: Matricaria inodora (MATIN); assay: Herbicidal pre-emergence action (A), 1280 g/ha; conditions: visual grading after ca. 3 weeks vs untreated controls
Procedure, shortened: as §1

Poa annua (POAAN) [9] = assay: Herbicidal pre-emergence action (A), 1280 g/ha; conditions: visual grading after ca. 3 weeks vs untreated controls, 100% = plants have died off, 0% = as control plants
Procedure, shortened: as §1

Setaria viridis (SETVI) [10] = assay: Herbicidal pre-emergence action (A), 1280 g/ha; conditions: visual grading after ca. 3 weeks vs untreated controls
Procedure, shortened: as §1

Stellaria media (STEME) [11] = assay: Herbicidal pre-emergence action (A), 1280 g/ha; conditions: visual grading after ca. 3 weeks vs untreated controls
Procedure, shortened: as §1

Veronica persica (VERPE) [12] = assay: Herbicidal pre-emergence action (A), 1280 g/ha; conditions: visual grading after ca. 3 weeks vs untreated controls
Procedure, shortened: as §1

[13] = test system: Alopecurus myosuroides (ALOMY); assay: Herbicidal post-emergence action (B), 1280 g/ha; conditions: rated visually after about 3 weeks vs untreated controls
Procedure, shortened: (§2)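 Post-emergence greenhouse test: weeds in sandy loam treated at the one-leaf stage, 2 to 3 weeks after sowing, with WP or EC formulations plus 0.5% additive at 600 l/ha water. Visual activity versus untreated controls after about 3 weeks (100% = dead, 0% = like control).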

[14] = test system: Amaranthus retroflexus (AMARE); assay: Herbicidal post-emergence action (B), 1280 g/ha; conditions: rated visually after about 3 weeks vs untreated controls
Procedure, shortened: as §2

[15] = test system: Echinochloa crus-galli (ECHCG); assay: Herbicidal post-emergence action (B), 1280 g/ha; conditions: rated visually after about 3 weeks vs untreated controls
Procedure, shortened: as §2

[16] = test system: Kochia scoparia (KCHSC; Bassia scoparia); assay: Herbicidal post-emergence action (B), 1280 g/ha
Procedure, shortened: as §2

Lolium rigidum (LOLRI) [17] = assay: Herbicidal post-emergence action (B), 1280 g/ha; conditions: one-leaf stage, rated after about 3 weeks vs untreated controls, 100% activity = the plants have died, 0% = like control plants
Procedure, shortened: as §2

Poa annua (POAAN) [18] = assay: Herbicidal post-emergence action (B), 1280 g/ha; conditions: rated visually after about 3 weeks vs untreated controls
Procedure, shortened: as §2

Stellaria media (STEME) [19] = assay: Herbicidal post-emergence action (B), 1280 g/ha
Procedure, shortened: as §2

Veronica persica (VERPE) [20] = assay: Herbicidal post-emergence action (B), 1280 g/ha
Procedure, shortened: as §2

[21] = test system: Alopecurus myosuroides (ALOMY); assay: Herbicidal pre-emergence action (C), 320 g/ha; conditions: ca. 3 weeks
Procedure, shortened: (§3)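 Sandy loam pots, seeds covered with soil → WP/EC compound sprayed on soil surface (aq., +0.5% additive, 600 l/ha) → greenhouse, optimum growth → visual herbicidal effect (%) at ca. 3 wk vs untreated.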

[22] = test system: Amaranthus retroflexus (AMARE); assay: Herbicidal pre-emergence action (C), 320 g/ha; conditions: ca. 3 weeks
Procedure, shortened: as §3

[23] = test system: Echinochloa crus-galli (ECHCG); assay: Herbicidal pre-emergence action (C), 320 g/ha; conditions: ca. 3 weeks
Procedure, shortened: as §3

Lolium rigidum (LOLRI) [24] = assay: Herbicidal pre-emergence action (C), 320 g/ha; conditions: ca. 3 weeks
Procedure, shortened: as §3

[25] = test system: Polygonum convolvulus (POLCO); assay: Herbicidal pre-emergence action (C), 320 g/ha; conditions: ca. 3 weeks
Procedure, shortened: as §3

Setaria viridis (SETVI) [26] = assay: Herbicidal pre-emergence action (C), 320 g/ha; conditions: ca. 3 weeks
Procedure, shortened: as §3

Veronica persica (VERPE) [27] = assay: Herbicidal pre-emergence action (C), 320 g/ha; conditions: ca. 3 weeks
Procedure, shortened: as §3

[28] = test system: Alopecurus myosuroides (ALOMY); assay: Herbicidal post-emergence action (D), 320 g/ha; conditions: ca. 3 weeks
Excerpt: (§4) ABUTH: Abutilon theophrasti AGSTE: Agrostis tenuis ALOMY: Alopecurus myosuroides AMARE Amaranthus retroflexus DIGSA: Digitaria sanguinalis ECHCG: Echinochloa crus-galli KCHSC: Kochia scoparia LOLRI: Lolium rigidum MATIN: Matricaria inodora POAAN: Poa annua POLCO: Polygonum convolvulus SETVI: Setaria viridis STEME: Stellaria media VERPE: Veronica persica VIOTR: Viola tricolor
(§5) Seeds of mono- and dicotyledonous weed plants and crop plants were sown, in plastic or organic planting pots, in sandy loam, covered with soil and grown in a greenhouse under controlled growth conditions. 2 to 3 weeks after sowing, the test plants were sprayed in the single-leaf stage. The compounds according to the invention, formulated in form of wettable powders (WP) or as emulsifiable concentrates (EC), were sprayed onto the green plant parts as aqueous suspension or emulsion, with the addition of 0.5% of an additive, at an application rate of 600 l of water/ha (converted). The test plants were placed in the greenhouse for ca. 3 weeks under optimum growth conditions, and then the effect of the preparations was assessed visually in comparison with untreated controls (herbicidal effect in percent (%): 100% effect=plants have died off, 0% effect=as control plants).
(§6) Tables D1 to D13 below show the effects of selected compounds of the general formula (I) according to table 1 on various harmful plants and an application rate corresponding to 320 g/ha obtained by the experimental procedure mentioned above.

[29] = test system: Amaranthus retroflexus (AMARE); assay: Herbicidal post-emergence action (D), 320 g/ha; conditions: ca. 3 weeks
Excerpt: as §4, §5, §6

Veronica persica (VERPE) [30] = assay: Herbicidal post-emergence action (D), 320 g/ha; conditions: ca. 3 weeks
Excerpt: as §4, §5, §6

Setaria viridis (SETVI) [31] = assay: Herbicidal post-emergence action (B), 1280 g/ha; conditions: rated visually after about 3 weeks vs untreated controls
Procedure, shortened: as §2

[32] = test system: Digitaria sanguinalis (DIGSA); assay: Herbicidal pre-emergence action (C), 320 g/ha; conditions: ca. 3 weeks
Excerpt: (§7) Seeds of mono- and dicotyledonous weed plants and crop plants were sown, in plastic or organic planting pots, in sandy loam and covered with soil. The compounds according to the invention, formulated in the form of wettable powders (WP) or as emulsifiable concentrates (EC), were applied to the surface of the covering soil as aqueous suspension or emulsion, with the addition of 0.5% of an additive, at an application rate of 600 l of water/ha (converted).
(§8) Following treatment, the pots were placed in a greenhouse and kept under optimum growth conditions for the test plants. The visual grading of the damage to the test plants was carried out after ca. 3 weeks in comparison to untreated controls (herbicidal effect in percent (%): 100% effect=plants have died off, 0% effect=as control plants).
(§9) Tables C1 to C13 below show the effects of selected compounds of the general formula (I) according to table 1 on various harmful plants and an application rate corresponding to 320 g/ha obtained by the experimental procedure mentioned above.

[33] = test system: Abutilon theophrasti (ABUTH); assay: Herbicidal post-emergence action (B), 1280 g/ha; conditions: rated visually after about 3 weeks vs untreated controls
Procedure, shortened: as §2

[34] = test system: Abutilon theophrasti (ABUTH); assay: Herbicidal pre-emergence action (C), 320 g/ha; conditions: ca. 3 weeks
Procedure, shortened: as §3

[35] = test system: Matricaria inodora (MATIN); assay: Herbicidal pre-emergence action (C), 320 g/ha; conditions: ca. 3 weeks
Procedure, shortened: as §3

Avena fatua = assay: Herbicidal pre-emergence action (C), 320 g/ha; conditions: ca. 3 weeks
Excerpt: as §7, §8, §9

[36] = test system: Echinochloa crus-galli (ECHCG); assay: Herbicidal post-emergence action (D), 320 g/ha; conditions: ca. 3 weeks
Excerpt: as §4, §5, §6

Setaria viridis (SETVI) [37] = assay: Herbicidal post-emergence action (D), 320 g/ha; conditions: ca. 3 weeks
Excerpt: as §4, §5, §6

SMILES	ALOMY, herbicidal effect in percent (%) [2] [%]	ECHCG, herbicidal effect in percent (%) [5] [%]	herbicidal effect KCHSC [6] [%]	LOLRI, herbicidal effect in percent (%) (Lolium rigidum (LOLRI) [7])	herbicidal effect MATIN [8] [%]	POAAN, herbicidal effect in percent (%) (Poa annua (POAAN) [9])	herbicidal effect SETVI (Setaria viridis (SETVI) [10]) [%]	herbicidal effect STEME (Stellaria media (STEME) [11]) [%]	herbicidal effect VERPE (Veronica persica (VERPE) [12]) [%]	herbicidal activity AMARE [14] [%]	herbicidal effect KCHSC [16] [%]	herbicidal activity POAAN (Poa annua (POAAN) [18]) [%]	herbicidal effect STEME (Stellaria media (STEME) [19]) [%]	herbicidal effect VERPE (Veronica persica (VERPE) [20]) [%]	herbicidal effect ALOMY [21] [%]	herbicidal effect AMARE [22] [%]	herbicidal effect LOLRI (Lolium rigidum (LOLRI) [24]) [%]	herbicidal effect SETVI (Setaria viridis (SETVI) [26]) [%]	herbicidal effect VERPE (Veronica persica (VERPE) [27]) [%]	herbicidal effect ALOMY [28] [%]	also measured
Cc1cccc(F)c1-c1nc2ncsc2cc1Cl [Example I-013]	100	100	100	100	90	100	100	100	90	100	100	90	100	100	100	90	100	100	80	80	ABUTH, herbicidal effect in percent (%) [1]: 90%; herbicidal effect AMARE [3]: 90%; DIGSA, herbicidal effect in percent (%) [4]: 100%; herbicidal activity ALOMY [13]: 100%; herbicidal activity ECHCG [15]: 100%; LOLRI, activity rated visually (%) (Lolium rigidum (LOLRI) [17]): 90%; herbicidal effect ECHCG [23]: 100%; herbicidal effect POLCO [25]: 80%; herbicidal effect AMARE [29]: 80%; herbicidal effect VERPE (Veronica persica (VERPE) [30]): 80%
Clc1ccccc1-c1nc2ncsc2cc1Cl [Example I-069]	100	100	90	90	90	100	100	90	90	90	90	100	100	100	100	90	100	100	90	90	DIGSA, herbicidal effect in percent (%) [4]: 100%; herbicidal activity ALOMY [13]: 100%; herbicidal activity ECHCG [15]: 100%; LOLRI, activity rated visually (%) (Lolium rigidum (LOLRI) [17]): 90%; herbicidal activity SETVI (Setaria viridis (SETVI) [31]): 90%; herbicidal effect ECHCG [23]: 100%; herbicidal effect DIGSA [32]: 100%; herbicidal effect AMARE [29]: 80%; herbicidal effect VERPE (Veronica persica (VERPE) [30]): 90%
Cc1cc2scnc2nc1C12CCCCC1O2 (stereo not shown) [Example I-151]	100	100	100	100	90	100	100	100	90	100	100	100	100	100	100	90	90	100	90	80	ABUTH, herbicidal effect in percent (%) [1]: 90%; herbicidal effect AMARE [3]: 100%; DIGSA, herbicidal effect in percent (%) [4]: 100%; herbicidal activity ALOMY [13]: 100%; herbicidal effect POLCO [25]: 80%; herbicidal effect DIGSA [32]: 100%; herbicidal effect AMARE [29]: 80%; herbicidal effect VERPE (Veronica persica (VERPE) [30]): 80%
Cc1cscc1-c1nc2ncsc2cc1C [Example I-193]	90	100	90	100	90	100	100	100	90	100	90	100	90	90	100	90	100	100	80	90	herbicidal effect AMARE [3]: 90%; herbicidal activity ABUTH [33]: 90%; herbicidal activity ECHCG [15]: 100%; herbicidal effect ABUTH [34]: 80%; herbicidal effect ECHCG [23]: 100%; herbicidal effect MATIN [35]: 80%; herbicidal effect POLCO [25]: 80%; herbicidal effect AVEFA (Avena fatua): 80%; herbicidal effect AMARE [29]: 80%; herbicidal effect ECHCG [36]: 80%; herbicidal effect SETVI (Setaria viridis (SETVI) [37]): 80%
